The results in this text go back to patent US20260224688A1, “HELPER LIPIDS FOR NUCLEIC ACID DELIVERY” (SANOFI PASTEUR INC., priority 2023, published 2026).

The structures appear in SMILES notation. “And” between values parts separate entries of the source, which are not always exact repeats. Equal values may be shown once.

Data set [1] deals with hEPO. Briefly: IV EPO expression of LNPs (tail vein injection). It is filed as in vivo, female BALB/cJ mice. Conditions: cationic lipid CL-0137, helper lipid 30 mol %; 0.017 μg EPO mRNA tail vein; 6 hours; DOPE = 1. The procedure, abridged:
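Female BALB/cJ mice (6-8 weeks) received a single tail-vein injection of 0.017 μg hEPO mRNA in LNPs (cationic lipid CL-0137/helper lipid/cholesterol/DMG-PEG-2K, 40:30:28.5:1.5 mol %). Serum hEPO was measured by ELISA on blood taken 6 h post-dose.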

Data set [2] concerns hEPO. Briefly: IM EPO expression of LNPs containing new helper lipids (hEPO in serum by ELISA). It is filed as in vivo, female BALB/cJ mice. Conditions: for 6-h EPO / 24-h EPO: single IM injection; for 24-h EPO: serum 24 hours post injection. The procedure, abridged:
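Female BALB/cJ mice aged 6-8 weeks received one intramuscular gastrocnemius injection of […] hEPO mRNA in 30 μL LNPs. The LNPs contained cationic lipid, phospholipid helper, cholesterol and DMG-PEG-2K at 40:30:28.5:1.5 mol %. Serum hEPO was measured by ELISA at 6 and 24 h.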
(In an ELISA, binding on a coated surface is turned into a signal by an enzyme label.)

The nature of data set [3]: Dynamic light scattering of lipid nanoparticles (size, PDI). It is filed as physicochemical. Summed up: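 LNPs of cationic lipid:DMG-PEG2000:cholesterol:helper lipid at 40:1.5:30:28.5 molar ratio, made by Process A. Diluted in 10% trehalose (about 0.1 mg/ml mRNA) and sized by DLS at 173° backscatter with a 633-nm laser, giving size and PDI.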
Data set [4] in a line: mRNA encapsulation efficiency of lipid nanoparticles. It counts as physicochemical. Conditions: for Encapsulation efficiency (EE): LNP with cationic lipid CL-A. The procedure, abridged: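 Encapsulation by RiboGreen assay run with and without 0.1% Triton-X 100. LNPs made by ethanolic lipid mixing with acidic aqueous mRNA, molar ratio 40:1.5:30:28.5 (cationic lipid:DMG-PEG2000:cholesterol:helper lipid), ultrafiltered/diafiltered, stored at −80° C. Size/PdI by dynamic light scattering after dilution in 10% trehalose to about 0.1 mg/ml mRNA.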

In data set [5] the test system is hEPO. The experiment in a line: IM EPO expression of LNPs containing phosphatidylcholine helper lipids. It counts as in vivo, female BALB/cJ mice. The settings on record: PC/CL-C formulations, helper lipid 13.5 mol %, DOPE = 1. As to the method: EPO expression studies were conducted with female BALB/cJ mice 6-8 weeks of age. Mice were dosed with […] EPO mRNA in 30 μL of LNPs by a single intramuscular (IM) injection into the gastrocnemius leg muscle. Blood samples were taken 6 and 24 hours post injection and hEPO levels were measured in the blood serum of the mice using an ELISA assay according to the manufacture's protocol. WO2022/099003 A1 also describes an in vivo assay for intramuscular administration (e.g. on page 46, paragraph [00206]).
Lipid nanoparticles were formulated containing the four lipid components shown below, complexed with a hEPO messenger RNA. • Cationic lipid CL-C, 40 mol % • Helper lipid, 13.5 mol % • Cholesterol, 44.8 mol % • DMG-PEG-2K (1,2-dimyristoyl-rac-glycero-3-methoxypolyethyleneglycol), 1.67 mol %
EPO expression studies were performed as described above in Example 3.

The subject of data set [6] is hEPO. The experiment in a line: IV delivery using phosphatidylcholine helper lipids (EPO expression). It counts as in vivo, female BALB/cJ mice. The settings on record: cationic lipid CL-0137, helper lipid 13.5 mol %; 0.017 μg EPO mRNA tail vein; 6 hours; DOPE = 1. On the procedure: Lipid nanoparticles were formulated containing the four lipid components shown below, complexed with a hEPO messenger RNA. • Cationic lipid CL-0137, 40 mol % • Helper lipid, 13.5 mol % • Cholesterol, 44.8 mol % • DMG-PEG-2K (1,2-dimyristoyl-rac-glycero-3-methoxypolyethyleneglycol), 1.67 mol %
EPO expression studies were conducted with female BALB/cJ mice 6-8 weeks of age. Mice were dosed with 0.017 μg EPO mRNA LNPs in a volume of 5 ul by a single tail vein injection. Blood samples were taken 6 hours post injection and hEPO levels were measured in the blood serum of the mice using an ELISA assay according to the manufacture's protocol.

Where [7] appears, read: CL-A LNP, 0.1 μg EPO mRNA in 30 μL, serum 6 hours post injection.
Setting [8] is: CL-B LNP, serum 6 hours post injection.
The mark [9] stands for this setting: LNP with cationic lipid CL-A, hEPO mRNA, 40:30:28.5:1.5.

Consider `CCCCCCCCC(CCCCCCCC)OC(=O)CCCCCCC(=O)OCC(COP(=O)(O)OCCN(C)CCO)OC(=O)CCCCCCC(=O)OC(CCCCCCCC)CCCCCCCC` (stereo not shown) [Compound 25], for which the “Normalized Mean IV EPO expression” value in the data set with hEPO [1] stood at 1.24. Besides, the “6-h EPO” value amounted to 16.5 ng/mL in the data set on hEPO [2] (setting [7]); 44.5 ng/mL in the data set with hEPO [2] (setting [8]); 56.5 ng/mL in the data set on hEPO [2] (CL-C LNP, (6-h)). For the same compound, in data set [3] (LNP with cationic lipid CL-A), the “Polydispersity Index (PDI)” value worked out at 0.121. The Size stood at 137 nm in data set [3] (setting [9]), 120.1 nm in data set [3] (LNP with cationic lipid CL-B) and 92.2 nm in data set [3] (LNP with cationic lipid CL-C). Also, the PDI in data set [3] (LNP with cationic lipid CL-B) was 0.151; in data set [3] (LNP with cationic lipid CL-C), 0.142. The “Encapsulation efficiency (EE)” value in data set [4] is on record as 93%. For the same compound, the EE in data set [4] (LNP with cationic lipid CL-B) is 95%; in data set [4] (LNP with cationic lipid CL-C), 93%.

Regarding `CCCCCCCCC(CCCCCCCC)OC(=O)CCCCCCC(=O)OC[C@H](COP(=O)([O-])OCC[N+](C)(C)C)OC(=O)CCCCCCC(=O)OC(CCCCCCCC)CCCCCCCC` [Compound 41, (R)-2,3-Bis((8-(heptadecan-9-yloxy)-8-oxooctanoyl)oxy)propyl (2-(trimethylammonio)ethyl) phosphate], in the data set on hEPO [1], the “Normalized Mean IV EPO expression” value stood at 1.7. Besides, the “Normalized Mean EPO expression” value in the data set on hEPO [5] was determined as 1.3.

Regarding `CCCCCCCCC(CCCCCCCC)OC(=O)CCCCCCC(=O)OC[C@@H](COP(=O)([O-])OCC[N+](C)(C)C)OC(=O)CCCCCCC(=O)OC(CCCCCCCC)CCCCCCCC` [Compound 42, (S)-2,3-Bis((8-(heptadecan-9-yloxy)-8-oxooctanoyl)oxy)propyl (2-(trimethylammonio)ethyl) phosphate], in the data set with hEPO [5], the “Normalized Mean EPO expression” value amounted to 1.1. For the same compound, the “Normalized mean IV EPO expression using PC LNPs” value with hEPO [6] amounted to 1.16.

For `CCCCCCCCC(CCCCCCCC)OC(=O)CCCCCCCCC(=O)O[C@@H](COC(=O)CCCCCCC(=O)OC(CCCCCCCC)CCCCCCCC)COP(=O)(O)OCC[N+](C)(C)C` [Compound 44, (S)-2-((10-(Heptadecan-9-yloxy)-10-oxodecanoyl)oxy)-3-((8-(heptadecan-9-yloxy)-8-oxooctanoyl)oxy)propyl (2-(trimethylammonio)ethyl) phosphate], the “Normalized Mean EPO expression” value in the data set with hEPO [5] was determined as 1. In the data set with hEPO [6], the “Normalized mean IV EPO expression using PC LNPs” value came out at 1.32.

In the case of `CCCCCCCCC(CCCCCCCC)OC(=O)CCCCCCCC(=O)O[C@@H](COC(=O)CCCCCCC(=O)OC(CCCCCCCC)CCCCCCCC)COP(=O)(O)OCC[N+](C)(C)C` [Compound 46, (S)-3-((8-(Heptadecan-9-yloxy)-8-oxooctanoyl)oxy)-2-((9-(heptadecan-9-yloxy)-9-oxononanoyl)oxy)propyl (2-(trimethylammonio)ethyl) phosphate], in the data set with hEPO [5], the “Normalized Mean EPO expression” value was 1.1. For the same compound, the “Normalized mean IV EPO expression using PC LNPs” value in the data set on hEPO [6] is listed as 1.34.

As for `CCCCCCCCC(CCCCCCCC)OC(=O)CCCCCCC(=O)O[C@@H](COC(=O)CCCCC(=O)OC(CCCCCCCC)CCCCCCCC)COP(=O)(O)OCC[N+](C)(C)C` [Compound 48, (S)-3-((6-(Heptadecan-9-yloxy)-6-oxohexanoyl)oxy)-2-((8-(heptadecan-9-yloxy)-8-oxooctanoyl)oxy)propyl (2-(trimethylammonio)ethyl) phosphate], in the data set with hEPO [5], the “Normalized Mean EPO expression” value worked out at 1.1. Also, in the data set on hEPO [6], the “Normalized mean IV EPO expression using PC LNPs” value amounted to 1.08.

As for `CCCCCCCCC(CCCCCCCC)OC(=O)CCCCCCCC(=O)OC[C@@H](COP(=O)(O)OCC[N+](C)(C)C)OC(=O)CCCCCCC(=O)OC(CCCCCCCC)CCCCCCCC` [Compound 50, (S)-2-((8-(Heptadecan-9-yloxy)-8-oxooctanoyl)oxy)-3-((9-(heptadecan-9-yloxy)-9-oxononanoyl)oxy)propyl (2-(trimethylammonio)ethyl) phosphate], in the data set on hEPO [5], the “Normalized Mean EPO expression” value is listed as 1. The “Normalized mean IV EPO expression using PC LNPs” value in the data set on hEPO [6] is 1.6.

Consider `CCCCCCCCC(CCCCCCCC)OC(=O)CCCCCCCCC(=O)OC[C@@H](COP(=O)(O)OCC[N+](C)(C)C)OC(=O)CCCCCCC(=O)OC(CCCCCCCC)CCCCCCCC` [Compound 52, (S)-3-((10-(Heptadecan-9-yloxy)-10-oxodecanoyl)oxy)-2-((8-(heptadecan-9-yloxy)-8-oxooctanoyl)oxy)propyl (2-(trimethylammonio)ethyl) phosphate], for which, in the data set with hEPO [5], the “Normalized Mean EPO expression” value came to 1. The “Normalized mean IV EPO expression using PC LNPs” value in the data set with hEPO [6] is reported as 1.53.

For the compound `CCCCCCCCC(CCCCCCCC)C(=O)OCCCCCC(=O)OC[C@@H](COP(=O)(O)OCC[N+](C)(C)C)OC(=O)CCCCCOC(=O)C(CCCCCCCC)CCCCCCCC` [Compound 54, (S)-2,3-Bis((6-((2-octyldecanoyl)oxy)hexanoyl)oxy)propyl (2-(trimethylammonio)ethyl) phosphate], the “Normalized Mean EPO expression” value in the data set on hEPO [5] came to 0.5. The “Normalized mean IV EPO expression using PC LNPs” value with hEPO [6] is reported as 0.97.

As to `CCCCCCCCCCCCCCCC(=O)OC[C@@H](COP(=O)(O)OCC[N+](C)(C)C)OC(=O)CCCCCCC(=O)OC(CCCCCCCC)CCCCCCCC` [Compound 56, (S)-2-((8-(Heptadecan-9-yloxy)-8-oxooctanoyl)oxy)-3-(palmitoyloxy)propyl (2-(trimethylammonio)ethyl) phosphate], in the data set with hEPO [5], the “Normalized Mean EPO expression” value is listed as 1. Moreover, in the data set with hEPO [6], the “Normalized mean IV EPO expression using PC LNPs” value worked out at 1.52.

Take `CCCCCCCCCCCCCCCC(=O)OC[C@H](COP(=O)(O)OCC[N+](C)(C)C)OC(=O)CCCCCCC(=O)OC(CCCCCCCC)CCCCCCCC` [Compound 57, (R)-2-((8-(Heptadecan-9-yloxy)-8-oxooctanoyl)oxy)-3-(palmitoyloxy)propyl (2-(trimethylammonio)ethyl) phosphate]: the “Normalized Mean EPO expression” value in the data set on hEPO [5] came to 0.9.

In the case of `CCCCCCCC/C=C\CCCCCCCC(=O)OC[C@H](COP(=O)(O)OCCN)OC(=O)CCCCCCC/C=C\CCCCCCCC` [DOPE, dioleoylphosphatidylethanolamine, reference compound], the “Normalized Mean IV EPO expression” value in the data set on hEPO [1] stood at 1. Moreover, the “6-h EPO” value with hEPO [2] (setting [7]) is listed as 26.23 ng/mL; in the data set on hEPO [2] (setting [8]) it was 19.62 ng/mL; with hEPO [2] (CL-C LNP), 16.38 ng/mL; in the data set with hEPO [2] (CL-C LNP, (6-h)), 20.96 ng/mL. The “24-h EPO” value in the data set with hEPO [2] (CL-A LNP) was found to be 19.128 ng/mL; in the data set with hEPO [2] (CL-B LNP) it was 15.03 ng/mL. The “Normalized Mean EPO expression” value in the data set on hEPO [2] (helper lipid CL-C formulations, IM, DOPE = 1) stood at 1; in the data set on hEPO [5], 1. In addition, the “Polydispersity Index (PDI)” value in data set [3] (LNP with cationic lipid CL-A) was 0.06 and 0.100. In data set [3] (setting [9]), the Size is 129 nm and 119 nm. Besides, the “Normalized mean IV EPO expression using PC LNPs” value in the data set on hEPO [6] was determined as 1. Moreover, in data set [4], the “Encapsulation efficiency (EE)” value came out at 91%.

Consider `CCCCCCCCCCCCCCCCCC(=O)OC[C@H](COP(=O)([O-])OCC[N+](C)(C)C)OC(=O)CCCCCCCCCCCCCCCCC` [DSPC, distearoylphosphatidylcholine, reference compound], for which the “Normalized mean IV EPO expression using PC LNPs” value in the data set on hEPO [6] was found to be 0.89.
